Test results reported in PubChem BioAssay (NCI).
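Grown in 96-well plates, cells were treated for 48 hours with each compound at five concentrations. Insufficient inhibition: endpoint recorded as highest concentration tested. Definition used: TGI = concentration required for complete inhibition of growth.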

Experiments:
Experiment in all cases: growth of human tumour cells (NCI), 48 h
[1] = test system: HS 578T breast
[2] = test system: SF-539 CNS
[3] = test system: OVCAR-4 ovarian
[4] = test system: BT-549 breast
[5] = test system: NCI-H522 lung
[6] = test system: UACC-257 melanoma
[7] = test system: SNB-19 CNS
[8] = test system: HCC-2998 colon
[9] = test system: TK-10 renal
[10] = test system: SF-295 CNS
[11] = test system: UO-31 renal
[12] = test system: PC-3 prostate
[13] = test system: HCT-116 colon
[14] = test system: M14 melanoma
[15] = test system: T-47D breast
[16] = test system: CCRF-CEM leukemia
[17] = test system: SR leukemia
[18] = test system: NCI-H23 lung
[19] = test system: SF-268 CNS
[20] = test system: IGROV1 ovarian
[21] = test system: OVCAR-3 ovarian
[22] = test system: NCI-H226 lung
[23] = test system: OVCAR-5 ovarian
[24] = test system: SN12C renal
[25] = test system: SK-OV-3 ovarian
[26] = test system: NCI/ADR-RES ovarian
[27] = test system: LOX IMVI melanoma
[28] = test system: MCF7 breast
[29] = test system: HL-60(TB) leukemia
[30] = test system: SK-MEL-2 melanoma
[31] = test system: DU-145 prostate
[32] = test system: MOLT-4 leukemia
[33] = test system: ACHN renal
[34] = test system: MDA-N
[35] = test system: UACC-62 melanoma
[36] = test system: KM12 colon
[37] = test system: RXF 393 renal
[38] = test system: HT29 colon
[39] = test system: A498 renal
[40] = test system: MDA-MB-231 breast
[41] = test system: MDA-MB-435
[42] = test system: MALME-3M melanoma
[43] = test system: COLO 205 colon
[44] = test system: K-562 leukemia
[45] = test system: A549 NSCLC
[46] = test system: U251 CNS
[47] = test system: SW-620 colon
[48] = test system: SK-MEL-28 melanoma
[49] = test system: CAKI-1 renal
[50] = test system: 786-0 renal
[51] = test system: HOP-92 NSCLC
[52] = test system: NCI-H460 lung
[53] = test system: OVCAR-8 ovarian
[54] = test system: SNB-75 CNS
[55] = test system: HCT-15 colon
[56] = test system: SK-MEL-5 melanoma
[57] = test system: HOP-62 NSCLC

## O=c1n(-c2ccc(Cl)c(Cl)c2)c(=O)n(-c2ccc(Cl)c(Cl)c2)c(=O)n1-c1ccc(Cl)c(Cl)c1
[1]
  TGI: 10 µM
[2]
  TGI: 2.77 µM
[3]
  TGI: 12.1 µM
[4]
  TGI: 8.49 µM
[5]
  TGI: 11.5 µM
[6]
  TGI: 5.73 µM
[7]
  TGI: 14.2 µM
[8]
  TGI: > 46.7 µM
[9]
  TGI: 17.3 µM
[10]
  TGI: 6.62 µM
[11]
  TGI: 9.73 µM
[12]
  TGI: 4.72 µM
[13]
  TGI: 5.5 µM
[14]
  TGI: 13.1 µM
[15]
  TGI: 12.6 µM
[16]
  TGI: 4.5 µM
[17]
  TGI: 8.09 µM
[18]
  TGI: 4.91 µM
[19]
  TGI: 6.69 µM
[20]
  TGI: 15 µM
[21]
  TGI: 13.5 µM
[22]
  TGI: 9.61 µM
[23]
  TGI: 8.91 µM
[24]
  TGI: > 31.6 µM
[25]
  TGI: 3.16 µM
[26]
  TGI: 11.2 µM
[27]
  TGI: 7.16 µM
[28]
  TGI: 5.03 µM
[29]
  TGI: > 24.2 µM
[30]
  TGI: 4.53 µM
[31]
  TGI: 12 µM
[32]
  TGI: 4.6 µM
[33]
  TGI: 6.43 µM
[34]
  TGI: 8.02 µM
[35]
  TGI: 11.2 µM
[36]
  TGI: 7.14 µM
[37]
  TGI: 7.85 µM
[38]
  TGI: 10.9 µM
[39]
  TGI: 7.52 µM
[40]
  TGI: 4.32 µM
[41]
  TGI: 16.5 µM
[42]
  TGI: > 27.8 µM
[43]
  TGI: 1.95 µM
[44]
  TGI: 9.05 µM
[45]
  TGI: 6.37 µM
[46]
  TGI: 10.6 µM
[47]
  TGI: 10.2 µM
[48]
  TGI: 15.1 µM
[49]
  TGI: 7.07 µM
[50]
  TGI: 7.84 µM
[51]
  TGI: 2.37 µM
[52]
  TGI: 10.7 µM
[53]
  TGI: 8.7 µM
[54]
  TGI: 7.75 µM
[55]
  TGI: 6.98 µM
[56]
  TGI: 3.44 µM
[57]
  TGI: 12.4 µM
